The source of these data is patent publication EP2140864A2 (H. Lundbeck A/S, priority 2001, dated 2002).

The structures appear in SMILES notation.

T1 sequence (P28222 whole entry): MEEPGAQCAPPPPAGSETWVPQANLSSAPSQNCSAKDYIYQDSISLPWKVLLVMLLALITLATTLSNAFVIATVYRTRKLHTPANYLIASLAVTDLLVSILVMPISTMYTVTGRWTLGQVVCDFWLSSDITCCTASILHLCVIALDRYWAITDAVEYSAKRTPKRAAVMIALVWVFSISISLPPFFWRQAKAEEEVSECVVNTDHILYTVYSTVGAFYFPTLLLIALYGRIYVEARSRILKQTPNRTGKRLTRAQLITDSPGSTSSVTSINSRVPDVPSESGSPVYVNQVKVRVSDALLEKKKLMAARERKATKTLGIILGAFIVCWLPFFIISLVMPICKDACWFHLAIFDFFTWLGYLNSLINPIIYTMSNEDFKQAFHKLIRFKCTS

The first assay has as its target T1, human 5HT1B (Homo sapiens, UniProt P28222).
T1 construct: expressed in transfected cells
The experiment in a line: Radioligand binding, 5HT1B receptor ([3H]-serotonin). The settings on record: Table 7; read-out: h5HT1B Ki. As for the experimental part: Human 5HT1B, 5HT1D, 5HT1E, 5HT1F, and 5HT7 Receptors: The cell lysates of LM(tk-) clonal cell line stably transfected with the genes encoding each of these 5HT receptor-subtypes were prepared as described above. Cell membranes were suspended in 50mM Tris-HCl buffer (pH 7.4 at 37°C) containing 10 mM MgCl2, 0.2 mM EDTA, 10 µM pargyline, and 0.1% ascorbate. […] Nonspecific binding was determined in the presence of 10 µM serotonin. The bound radioligand was separated by filtration through GF/B filters using a cell harvester.
(§1) Binding data were analyzed using nonlinear regression and statistical techniques available in the GraphPAD Prism package (San Diego, CA). Enzymatic assay data were derived from a standard curve of reference compound data.
Consider `O=C1C(=Nc2ccc(C(F)(F)F)cc2)c2ccccc2N1c1ccccc1` [Example 95, 1-PHENYL-3-[[4-(TRIFLUOROMETHYL)PHENYL]IMINO]-1,3-DIHYDRO-2H-INDOL-2-ONE], for which the Ki came out at 5.23 µM.
With `O=C1C(=Nc2ccc(Br)cc2)c2ccccc2N1c1ccccc1` [Example 98, 3-[(4-BROMOPHENYL)IMINO]-1-PHENYL-1,3-DIHYDRO-2H-INDOL-2-ONE], the inhibitory constant (Ki) stood at 2.42 µM.

Still in this assay, the particulars now being: Table 8; Ki h5HT1B divided by Ki hGAL3.
As to `O=C1C(=Nc2ccc(C(F)(F)F)cc2)c2ccccc2N1c1ccccc1` [Example 95, 1-PHENYL-3-[[4-(TRIFLUOROMETHYL)PHENYL]IMINO]-1,3-DIHYDRO-2H-INDOL-2-ONE], the “selectivity ratio h5HT1B” value is recorded as greater than 100.
Take `O=C1C(=Nc2ccc(Br)cc2)c2ccccc2N1c1ccccc1` [Example 98, 3-[(4-BROMOPHENYL)IMINO]-1-PHENYL-1,3-DIHYDRO-2H-INDOL-2-ONE]: the “selectivity ratio h5HT1B” value is given as greater than 30.

The target of the next assay is T2, rat 5HT2C receptor (Rattus norvegicus, UniProt P08909).
T2 construct: expressed in transfected cells
T2 sequence (P08909 33-460): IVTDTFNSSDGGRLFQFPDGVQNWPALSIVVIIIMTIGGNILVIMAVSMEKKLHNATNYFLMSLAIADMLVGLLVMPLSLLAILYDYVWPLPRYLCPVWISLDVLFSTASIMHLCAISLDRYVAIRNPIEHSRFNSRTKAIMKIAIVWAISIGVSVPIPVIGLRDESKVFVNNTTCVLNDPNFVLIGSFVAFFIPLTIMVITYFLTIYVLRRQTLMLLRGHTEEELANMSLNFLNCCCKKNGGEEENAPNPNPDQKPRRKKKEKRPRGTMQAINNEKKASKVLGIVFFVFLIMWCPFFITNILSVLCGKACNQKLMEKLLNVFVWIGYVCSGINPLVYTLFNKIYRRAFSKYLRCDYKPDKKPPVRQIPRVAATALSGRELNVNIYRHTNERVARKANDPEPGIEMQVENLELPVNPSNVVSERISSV
The experiment in a line: Radioligand binding, 5HT2C receptor. The conditions noted are these: Table 7; read-out: r5HT2C Ki. As for the experimental part: Other 5-HT Receptors: Other serotonin receptor binding assays were performed according to published methods: rat 5HT2C receptor (Julius et al., 1988); and 5-HT6 (Monsma, et al., 1993). The binding assays using the 5-HT4 receptor were performed according to the procedures described in U.S. Patent No. 5,766,879, the disclosure of which is hereby incorporated by reference in its entirety into this application.
as §1
Regarding `O=C1C(=Nc2ccc(C(F)(F)F)cc2)c2ccccc2N1c1ccccc1` [Example 95, 1-PHENYL-3-[[4-(TRIFLUOROMETHYL)PHENYL]IMINO]-1,3-DIHYDRO-2H-INDOL-2-ONE], the Ki worked out at 3.47 µM.
Take `O=C1C(=Nc2ccc(Br)cc2)c2ccccc2N1c1ccccc1` [Example 98, 3-[(4-BROMOPHENYL)IMINO]-1-PHENYL-1,3-DIHYDRO-2H-INDOL-2-ONE]: the Ki is 2.26 µM.

The same assay, now with this note: Table 8; Ki r5HT2C divided by Ki hGAL3.
As for `O=C1C(=Nc2ccc(C(F)(F)F)cc2)c2ccccc2N1c1ccccc1` [Example 95, 1-PHENYL-3-[[4-(TRIFLUOROMETHYL)PHENYL]IMINO]-1,3-DIHYDRO-2H-INDOL-2-ONE], the “selectivity ratio r5HT2C” value is greater than 100.
For `O=C1C(=Nc2ccc(Br)cc2)c2ccccc2N1c1ccccc1` [Example 98, 3-[(4-BROMOPHENYL)IMINO]-1-PHENYL-1,3-DIHYDRO-2H-INDOL-2-ONE], the “selectivity ratio r5HT2C” value is greater than 30.

For a further assay, the target named is T3, Human 5HT2A Receptor (Homo sapiens, UniProt P28223).
T3 construct: expressed in transfected cells; host or cells: COS-7 cells (pCEXV-3 vector, DEAE-dextran)
T3 sequence (P28223 whole entry): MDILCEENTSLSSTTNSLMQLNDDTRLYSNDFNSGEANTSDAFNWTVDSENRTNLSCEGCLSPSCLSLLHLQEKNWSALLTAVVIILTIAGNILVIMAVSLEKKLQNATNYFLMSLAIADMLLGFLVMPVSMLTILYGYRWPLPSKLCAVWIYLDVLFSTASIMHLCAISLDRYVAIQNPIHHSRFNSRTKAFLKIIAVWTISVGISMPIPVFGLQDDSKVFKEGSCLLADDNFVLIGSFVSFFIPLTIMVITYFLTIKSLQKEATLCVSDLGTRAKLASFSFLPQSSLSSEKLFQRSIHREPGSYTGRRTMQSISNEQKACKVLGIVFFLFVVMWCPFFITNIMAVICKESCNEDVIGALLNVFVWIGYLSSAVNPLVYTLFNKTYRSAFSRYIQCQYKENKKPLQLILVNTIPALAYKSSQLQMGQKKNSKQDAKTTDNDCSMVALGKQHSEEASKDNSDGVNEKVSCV
The assay can be described thus: Radioligand binding, 5HT2A receptor ([3H]ketanserin). The conditions noted are these: Table 7; read-out: h5HT2A Ki. The method, then:
Human 5HT2A Receptor: The coding sequence of the human 5HT2A receptor was obtained from a human brain cortex cDNA library, and cloned into the cloning site of pCEXV-3 eukaryotic expression vector. This construct was transfected into COS-7 cells by the DEAE-dextran method (Cullen, 1987). Cells were harvested after 72 hours and lysed by sonication in 5 mM Tris-HCl, 5 mM EDTA, pH 7.5. The cell lysates were subjected to centrifugation at 1000 rpm for 5 minutes at 4°C, and the supernatant was subjected to centrifugation at 30,000 x g for 20 minutes at 4°C. The pellet was suspended in 50 mM Tris-HCl buffer (pH 7.7 at room temperature) containing 10 mM MgS04, 0.5 mM EDTA, and 0.1% ascorbate. The affinity of compounds at 5HT2A receptors were determined in equilibrium competition binding assays using [^3H]ketanserin (1 nM). Nonspecific binding was defined by the addition of 10 µM mianserin. The bound radioligand was separated by filtration through GF/B filters using a cell harvester.
as §1
Regarding `O=C1C(=Nc2ccc(C(F)(F)F)cc2)c2ccccc2N1c1ccccc1` [Example 95, 1-PHENYL-3-[[4-(TRIFLUOROMETHYL)PHENYL]IMINO]-1,3-DIHYDRO-2H-INDOL-2-ONE], the Ki is greater than 50 µM.
The same measure, in the same setting: next, `O=C1C(=Nc2ccc(Br)cc2)c2ccccc2N1c1ccccc1` [Example 98, 3-[(4-BROMOPHENYL)IMINO]-1-PHENYL-1,3-DIHYDRO-2H-INDOL-2-ONE]: greater than 50 µM.

Still in this assay, the particulars now being: Table 8; Ki h5HT2A divided by Ki hGAL3.
Consider `O=C1C(=Nc2ccc(C(F)(F)F)cc2)c2ccccc2N1c1ccccc1` [Example 95, 1-PHENYL-3-[[4-(TRIFLUOROMETHYL)PHENYL]IMINO]-1,3-DIHYDRO-2H-INDOL-2-ONE], for which the “selectivity ratio h5HT2A” value was greater than 100.
On the same count and under the same terms, next, `O=C1C(=Nc2ccc(Br)cc2)c2ccccc2N1c1ccccc1` [Example 98, 3-[(4-BROMOPHENYL)IMINO]-1-PHENYL-1,3-DIHYDRO-2H-INDOL-2-ONE]: greater than 100.

The target of a further assay is T4, human α1A adrenoceptor (Homo sapiens, UniProt P35348).
T4 construct: expressed in transfected cells
T4 sequence (P35348 1-466): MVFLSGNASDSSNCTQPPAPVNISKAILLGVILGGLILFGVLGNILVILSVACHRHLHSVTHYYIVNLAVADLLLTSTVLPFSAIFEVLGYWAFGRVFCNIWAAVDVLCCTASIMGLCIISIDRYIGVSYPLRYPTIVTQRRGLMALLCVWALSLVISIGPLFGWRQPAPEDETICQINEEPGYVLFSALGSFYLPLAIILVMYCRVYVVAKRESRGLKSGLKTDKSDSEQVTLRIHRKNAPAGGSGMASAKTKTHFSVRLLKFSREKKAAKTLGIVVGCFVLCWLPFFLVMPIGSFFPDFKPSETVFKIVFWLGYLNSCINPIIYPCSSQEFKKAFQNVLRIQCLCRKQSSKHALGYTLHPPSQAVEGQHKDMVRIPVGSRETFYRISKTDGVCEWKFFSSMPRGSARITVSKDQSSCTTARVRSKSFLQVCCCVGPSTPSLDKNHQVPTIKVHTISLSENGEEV
The experiment in a line: Radioligand binding, α1A adrenergic receptor. The settings on record: Table 9; read-out: hα1A Ki.
Source text: (§2) Other receptors: Cell membranes expressing human dopamine D1, D2, D4 and rat D3 receptors were purchased through BioSignal, Inc. (Montreal, Canada). Binding assays using the histamine H1 receptor; dopamine receptors; and α1A, α1E, and α2 adrenergic receptors may be carried out according to the procedures described in U.S. Patent No. 5,780,485, the disclosure of which is hereby incorporated by reference in its entirety into this application. Binding assays using the dopamine D5 receptor may be carried out according to the procedures described in U.S. Patent No. 5,882,855, the disclosure of which is hereby incorporated by reference in its entirety into this application. Binding assays for the human α1D adrenergic receptor may be carried out according to the procedures described in U.S. Patent No. 6,156,518, the disclosure of which is hereby incorporated by reference in its entirety into this application.
as §1
Turning to `O=C1C(=Nc2ccc(C(F)(F)F)cc2)c2ccccc2N1c1ccccc1` [Example 95, 1-PHENYL-3-[[4-(TRIFLUOROMETHYL)PHENYL]IMINO]-1,3-DIHYDRO-2H-INDOL-2-ONE], the Ki stood at 13.1 µM.
On to `O=C1C(=Nc2ccc(Br)cc2)c2ccccc2N1c1ccccc1` [Example 98, 3-[(4-BROMOPHENYL)IMINO]-1-PHENYL-1,3-DIHYDRO-2H-INDOL-2-ONE], for which the Ki amounted to 14.5 µM.

The same assay, now with this note: Table 10; Ki hα1A divided by Ki hGAL3.
`O=C1C(=Nc2ccc(C(F)(F)F)cc2)c2ccccc2N1c1ccccc1` [Example 95, 1-PHENYL-3-[[4-(TRIFLUOROMETHYL)PHENYL]IMINO]-1,3-DIHYDRO-2H-INDOL-2-ONE]: the “selectivity ratio hα1A” value is recorded as greater than 100.
`O=C1C(=Nc2ccc(Br)cc2)c2ccccc2N1c1ccccc1` [Example 98, 3-[(4-BROMOPHENYL)IMINO]-1-PHENYL-1,3-DIHYDRO-2H-INDOL-2-ONE]: the “selectivity ratio hα1A” value is greater than 100.

The target in another assay is T5, human dopamine D2 (Homo sapiens, UniProt P14416).
T5 construct: purchased BioSignal, Inc. (Montreal, Canada)
T5 sequence (P14416 whole entry): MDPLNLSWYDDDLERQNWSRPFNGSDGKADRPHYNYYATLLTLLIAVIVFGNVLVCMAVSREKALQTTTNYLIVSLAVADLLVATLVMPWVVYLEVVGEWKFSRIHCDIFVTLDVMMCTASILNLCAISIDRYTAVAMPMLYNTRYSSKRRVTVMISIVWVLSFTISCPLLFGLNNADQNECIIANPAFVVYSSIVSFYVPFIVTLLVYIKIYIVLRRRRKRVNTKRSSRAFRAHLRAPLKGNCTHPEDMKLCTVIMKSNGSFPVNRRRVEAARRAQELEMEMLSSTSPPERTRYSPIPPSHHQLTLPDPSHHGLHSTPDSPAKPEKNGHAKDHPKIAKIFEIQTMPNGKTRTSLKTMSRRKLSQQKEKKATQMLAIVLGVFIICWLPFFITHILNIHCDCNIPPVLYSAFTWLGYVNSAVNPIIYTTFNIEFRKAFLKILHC
The assay can be described thus: Radioligand binding, dopamine D2 receptor. The settings on record: Table 9; read-out: hD2 Ki.
Source text: as §2, §1
As for `O=C1C(=Nc2ccc(C(F)(F)F)cc2)c2ccccc2N1c1ccccc1` [Example 95, 1-PHENYL-3-[[4-(TRIFLUOROMETHYL)PHENYL]IMINO]-1,3-DIHYDRO-2H-INDOL-2-ONE], the Ki turned out to be 9.72 µM.
For `O=C1C(=Nc2ccc(Br)cc2)c2ccccc2N1c1ccccc1` [Example 98, 3-[(4-BROMOPHENYL)IMINO]-1-PHENYL-1,3-DIHYDRO-2H-INDOL-2-ONE], the Ki was determined as 3.79 µM.

The same assay, now with this note: Table 10; Ki hD2 divided by Ki hGAL3.
As for `O=C1C(=Nc2ccc(C(F)(F)F)cc2)c2ccccc2N1c1ccccc1` [Example 95, 1-PHENYL-3-[[4-(TRIFLUOROMETHYL)PHENYL]IMINO]-1,3-DIHYDRO-2H-INDOL-2-ONE], the “selectivity ratio hD2” value was greater than 100.
In the case of `O=C1C(=Nc2ccc(Br)cc2)c2ccccc2N1c1ccccc1` [Example 98, 3-[(4-BROMOPHENYL)IMINO]-1-PHENYL-1,3-DIHYDRO-2H-INDOL-2-ONE], the “selectivity ratio hD2” value was greater than 100.

For a further assay, the target named is T6, rat D3 receptors (Rattus norvegicus, UniProt P19020).
T6 construct: purchased BioSignal, Inc. (Montreal, Canada)
T6 sequence (P19020 whole entry): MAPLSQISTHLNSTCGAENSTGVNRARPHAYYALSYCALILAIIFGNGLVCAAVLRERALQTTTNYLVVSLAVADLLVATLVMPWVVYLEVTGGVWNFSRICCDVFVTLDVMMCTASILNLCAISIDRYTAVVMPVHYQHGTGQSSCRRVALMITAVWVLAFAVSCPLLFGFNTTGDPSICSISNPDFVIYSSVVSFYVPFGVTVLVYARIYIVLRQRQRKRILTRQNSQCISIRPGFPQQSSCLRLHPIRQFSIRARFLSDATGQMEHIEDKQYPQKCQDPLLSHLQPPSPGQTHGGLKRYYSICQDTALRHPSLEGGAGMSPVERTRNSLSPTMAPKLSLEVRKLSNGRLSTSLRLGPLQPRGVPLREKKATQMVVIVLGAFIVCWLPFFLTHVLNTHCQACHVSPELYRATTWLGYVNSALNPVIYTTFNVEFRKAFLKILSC
The experiment in a line: Radioligand binding, dopamine D3 receptor. The conditions noted are these: Table 9; read-out: rD3 Ki.
Source text: as §2, §1
For `O=C1C(=Nc2ccc(C(F)(F)F)cc2)c2ccccc2N1c1ccccc1` [Example 95, 1-PHENYL-3-[[4-(TRIFLUOROMETHYL)PHENYL]IMINO]-1,3-DIHYDRO-2H-INDOL-2-ONE], the Ki was 0.466 µM.
Take `O=C1C(=Nc2ccc(Br)cc2)c2ccccc2N1c1ccccc1` [Example 98, 3-[(4-BROMOPHENYL)IMINO]-1-PHENYL-1,3-DIHYDRO-2H-INDOL-2-ONE]: the Ki amounted to 0.592 µM.

The assay is the same for the next values; noted with them: Table 10; Ki rD3 divided by Ki hGAL3.
In the case of `O=C1C(=Nc2ccc(C(F)(F)F)cc2)c2ccccc2N1c1ccccc1` [Example 95, 1-PHENYL-3-[[4-(TRIFLUOROMETHYL)PHENYL]IMINO]-1,3-DIHYDRO-2H-INDOL-2-ONE], the “selectivity ratio rD3” value is 16.
Regarding `O=C1C(=Nc2ccc(Br)cc2)c2ccccc2N1c1ccccc1` [Example 98, 3-[(4-BROMOPHENYL)IMINO]-1-PHENYL-1,3-DIHYDRO-2H-INDOL-2-ONE], the “selectivity ratio rD3” value turned out to be 16.

What is called Ki is the equilibrium dissociation constant of an inhibitor or competing ligand from its target.
